Data taken from patent US7851474B2, “Dipiperazinyl ketones and related analogues” (Neurogen Corporation, priority 2005, dated 2010).

target: T1, chimeric human H3 receptor (Homo sapiens, UniProt Q9Y5N1, E19D); assay: Chimeric human H3 receptor screening GTP binding assay (inhibition of histamine-stimulated GTP-gamma35S binding, Example 8); type: biochemical; details: 1 h; Table II "Ki", symbol "+": assay described in Example 8; read-out: percent inhibition of agonist-induced GTP-gammaS binding to H3
T1 construct: made in house; host or cells: Sf9 insect cells (baculovirus infection); P2 membrane preparation
Method in brief: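 Data are percent inhibition of the 1 μM histamine-stimulated GTP-gamma35S (125 pM) binding, after non-specific binding (10 uM GTP-gammaS) is subtracted. Test compound at 4 μM. Incubation was 60 min at room temperature with Sf9 membranes bearing receptor plus G-protein subunits, buffer pH 7.4 with 10 μM GDP, and filtration read-out.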

T1 sequence (Q9Y5N1 with tags, fused parts or gaps E19D): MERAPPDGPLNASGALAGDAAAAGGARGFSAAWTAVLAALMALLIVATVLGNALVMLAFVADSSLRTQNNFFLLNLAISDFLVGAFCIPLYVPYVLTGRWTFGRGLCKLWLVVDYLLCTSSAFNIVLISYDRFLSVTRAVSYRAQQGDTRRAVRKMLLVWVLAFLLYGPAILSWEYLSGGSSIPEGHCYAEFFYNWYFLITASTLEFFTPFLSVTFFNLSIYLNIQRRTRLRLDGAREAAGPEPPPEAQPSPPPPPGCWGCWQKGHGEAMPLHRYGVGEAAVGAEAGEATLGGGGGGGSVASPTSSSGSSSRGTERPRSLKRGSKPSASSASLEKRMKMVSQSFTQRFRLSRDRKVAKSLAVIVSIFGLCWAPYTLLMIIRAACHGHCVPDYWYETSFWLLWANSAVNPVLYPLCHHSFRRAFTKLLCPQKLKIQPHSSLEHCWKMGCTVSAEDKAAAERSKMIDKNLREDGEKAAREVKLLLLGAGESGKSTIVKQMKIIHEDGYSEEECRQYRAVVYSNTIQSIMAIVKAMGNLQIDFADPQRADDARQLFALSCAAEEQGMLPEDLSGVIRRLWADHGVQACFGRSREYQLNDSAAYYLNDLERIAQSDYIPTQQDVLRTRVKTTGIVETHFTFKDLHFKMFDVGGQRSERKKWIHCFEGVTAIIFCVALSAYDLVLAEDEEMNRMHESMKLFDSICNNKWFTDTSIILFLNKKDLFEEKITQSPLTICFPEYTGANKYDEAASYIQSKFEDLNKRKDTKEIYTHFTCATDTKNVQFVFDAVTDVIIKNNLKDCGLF

| SMILES | inhibition at 4 µM [%] |
| --- | --- |
| O=C(CN1CCN(C(=O)c2ccno2)CC1)N1CCN(C2CCC2)CC1 [Compound 795, 1-cyclobutyl-4-{[4-(isoxazol-5-ylcarbonyl)piperazin-1-yl]acetyl}piperazine] | > 90 |
| Cc1cc(C)c(C(=O)N2CCN(CC(=O)N3CCN(C4CCC4)CC3)CC2)c(C)c1 [Compound 796, 1-cyclobutyl-4-{[4-(mesitylcarbonyl)piperazin-1-yl]acetyl}piperazine] | > 90 |
| O=C(COc1ccccc1)N1CCN(CC(=O)N2CCN(C3CCC3)CC2)CC1 [Compound 797, 1-cyclobutyl-4-{[4-(phenoxyacetyl)piperazin-1-yl]acetyl}piperazine] | > 90 |
| O=C(Cc1ccccc1)N1CCN(CC(=O)N2CCN(C3CCC3)CC2)CC1 [Compound 798, 1-cyclobutyl-4-{[4-(phenylacetyl)piperazin-1-yl]acetyl}piperazine] | > 90 |
| O=C(CN1CCN(C(=O)c2ccccn2)CC1)N1CCN(C2CCC2)CC1 [Compound 799, 1-cyclobutyl-4-{[4-(pyridin-2-ylcarbonyl)piperazin-1-yl]acetyl}piperazine] | > 90 |
| O=C(CN1CCN(C(=O)c2cccnc2)CC1)N1CCN(C2CCC2)CC1 [Compound 800, 1-cyclobutyl-4-{[4-(pyridin-3-ylcarbonyl)piperazin-1-yl]acetyl}piperazine] | > 90 |
| CCC(C)N1CCN(C(=O)CN2CCN(C(=O)C3CCCO3)CC2)CC1 (stereo not drawn) [Compound 886, 1-sec-butyl-4-{[4-(tetrahydrofuran-2-ylcarbonyl)piperazin-1-yl]acetyl}piperazine] | > 90 |
| Cn1c(C(=O)N2CCN(CC(=O)N3CCN(C4CCC4)CC3)CC2)cc2ccccc21 [Compound 887, 2-({4-[2-(4-cyclobutylpiperazin-1-yl)-2-oxoethyl]piperazin-1-yl}carbonyl)-1-methyl-1H-indole] | > 90 |
| CCn1c(C(=O)N2CCN(CC(=O)N3CCN(C4CCC4)CC3)CC2)cc2ccccc21 [Compound 888, 2-({4-[2-(4-cyclobutylpiperazin-1-yl)-2-oxoethyl]piperazin-1-yl}carbonyl)-1-ethyl-1H-indole] | > 90 |
| CCCn1c(C(=O)N2CCN(CC(=O)N3CCN(C4CCC4)CC3)CC2)cc2ccccc21 [Compound 889, 2-({4-[2-(4-cyclobutylpiperazin-1-yl)-2-oxoethyl]piperazin-1-yl}carbonyl)-1-propyl-1H-indole] | > 90 |
| Nc1ccccc1C(=O)N1CCN(CC(=O)N2CCN(C3CCC3)CC2)CC1 [Compound 890, 2-({4-[2-(4-cyclobutylpiperazin-1-yl)-2-oxoethyl]piperazin-1-yl}carbonyl)aniline] | > 90 |
| CNc1ccccc1C(=O)N1CCN(CC(=O)N2CCN(C3CCC3)CC2)CC1 [Compound 891, 2-({4-[2-(4-cyclobutylpiperazin-1-yl)-2-oxoethyl]piperazin-1-yl}carbonyl)-N-methylaniline] | > 90 |
| Cc1cccc(C(=O)N2CCN(CC(=O)N3CCN(C4CCC4)CC3)CC2)c1N [Compound 892, 2-({4-[2-(4-cyclobutylpiperazin-1-yl)-2-oxoethyl]piperazin-1-yl}carbonyl)-6-methylaniline] | > 90 |
| Cc1ccc(N)c(C(=O)N2CCN(CC(=O)N3CCN(C4CCC4)CC3)CC2)c1 [Compound 893, 2-({4-[2-(4-cyclobutylpiperazin-1-yl)-2-oxoethyl]piperazin-1-yl}carbonyl)-4-methylaniline] | > 90 |
| Cc1cnc(C(=O)N2CCN(CC(=O)N3CCN(C4CCC4)CC3)CC2)cn1 [Compound 894, 2-({4-[2-(4-cyclobutylpiperazin-1-yl)-2-oxoethyl]piperazin-1-yl}carbonyl)-5-methylpyrazine] | > 90 |
| COc1cc(C(=O)N2CCN(CC(=O)N3CCN(C4CCC4)CC3)CC2)nc2ccccc12 [Compound 895, 2-({4-[2-(4-cyclobutylpiperazin-1-yl)-2-oxoethyl]piperazin-1-yl}carbonyl)-4-methoxyquinoline] | > 90 |

same assay, conditions: 1 h; Table II; assay of Example 8; "+" in Ki; read-out: percent inhibition of agonist-induced GTP-gammaS binding to H3

| SMILES | inhibition at 4 µM [%] |
| --- | --- |
| O=C(CN1CCN(C(=O)c2cnc3ccccc3c2)CC1)N1CCN(C2CCC2)CC1 [Compound 985, 3-({4-[2-(4-cyclobutylpiperazin-1-yl)-2-oxoethyl]piperazin-1-yl}carbonyl)quinoline] | > 90 |
| CNc1ccc(C(=O)N2CCN(CC(=O)N3CCN(C4CCC4)CC3)CC2)cc1 [Compound 1088] | > 90 |
| O=C(CN1CCN(C(=O)c2cc(-c3ccccc3)nc3ccccc23)CC1)N1CCN(C2CCC2)CC1 [Compound 1089] | > 90 |
| O=C(CN1CCN(C(=O)c2c(-c3ccccc3)nnc3ccccc23)CC1)N1CCN(C2CCC2)CC1 [Compound 1090] | > 90 |

same assay, conditions: 1 h; assay of Example 8; "+" in Ki of Table II; read-out: percent inhibition of agonist-induced GTP-gammaS binding to H3

| SMILES | inhibition at 4 µM [%] |
| --- | --- |
| Nc1ccc(Cl)cc1C(=O)N1CCN(CC(=O)N2CCN(C3CCC3)CC2)CC1 [Compound 1151, 4-chloro-2-({4-[2-(4-cyclobutylpiperazin-1-yl)-2-oxoethyl]piperazin-1-yl}carbonyl)aniline] | > 90 |
| Cc1ccc(C(=O)N2CCN(CC(=O)N3CCN(C4CCC4)CC3)CC2)cc1N [Compound 1153, 5-({4-[2-(4-cyclobutylpiperazin-1-yl)-2-oxoethyl]piperazin-1-yl}carbonyl)-2-methylaniline] | > 90 |
| Nc1cc(Cl)ccc1C(=O)N1CCN(CC(=O)N2CCN(C3CCC3)CC2)CC1 [Compound 1163, 5-chloro-2-({4-[2-(4-cyclobutylpiperazin-1-yl)-2-oxoethyl]piperazin-1-yl}carbonyl)aniline] | > 90 |
| CSc1ncc(Cl)c(C(=O)N2CCN(CC(=O)N3CCN(C4CCC4)CC3)CC2)n1 [Compound 1164, 5-chloro-4-({4-[2-(4-cyclobutylpiperazin-1-yl)-2-oxoethyl]piperazin-1-yl}carbonyl)-2-(methylthio)pyrimidine] | > 90 |
